According to article PMC7126871 (Bioorganic & Medicinal Chemistry Letters, 2012):

What was measured:
[1] = pH <7; cited from earlier work
[2] = tested on: cancer cell lines; settings: cited from earlier work
[3] = tested on: Coxsackie A strains A7 or A21; experiment: organism not typed; type: cell-based; settings: MRC5, read-out: EC50 Coxsackie A
[4] = tested on: panel of RNA viruses; type: cell-based
[5] = tested on: replicon cells; settings: human
[6] = tested on: HCV (1b) subgenomic replicon; type: cell-based

Structure (SMILES)	EC50 [3] [µM]	antiviral activity against panel of RNA viruses (in words) [4]	selectivity index (CC50/EC50) [6]	further results
C[C@@]1(n2cnc3c(N)ncnc32)O[C@H](CO)[C@@H](O)[C@H]1O [1′-C-Me adenosine]				stability in aqueous solutions [1]: rapidly degraded
Nc1ncnc2c1ccn2[C@@H]1O[C@H](CO)[C@@H](O)[C@H]1O [Compound 1, 7-Deazaadenosine]				cytotoxicity (in words) [2]: cytotoxic
N#C[C@@]1(c2ccc3c(N)ncnn23)O[C@H](CO)[C@@H](O)[C@H]1O [Compound 3a]	> 30	broader spectrum activity		
C[C@@]1(c2ccc3c(N)ncnn23)O[C@H](CO)[C@@H](O)[C@H]1O [Compound 3b]	> 30	reduced potency and a narrower spectrum of antiviral activity		CC50 [5]: > 89 µM
C=C[C@@]1(c2ccc3c(N)ncnn23)O[C@H](CO)[C@@H](O)[C@H]1O [Compound 3c]	> 30	reduced potency and a narrower spectrum of antiviral activity		
C#C[C@@]1(c2ccc3c(N)ncnn23)O[C@H](CO)[C@@H](O)[C@H]1O [Compound 3d]	> 30	no activity		
CC(C)(C)C(=O)SCCOP(=O)(OCCSC(=O)C(C)(C)C)OC[C@H]1O[C@@](C#N)(c2ccc3c(N)ncnn23)[C@H](O)[C@@H]1O [Compound 9a]				replicon activity compared to the parent nucleosides (in words) [6]: markedly enhanced replicon activity
CC(C)(C)C(=O)SCCOP(=O)(OCCSC(=O)C(C)(C)C)OC[C@H]1O[C@@](C)(c2ccc3c(N)ncnn23)[C@H](O)[C@@H]1O [Compound 9b]			less than 10 fold	replicon activity compared to the parent nucleosides (in words) [6]: markedly enhanced replicon activity
C=C[C@@]1(c2ccc3c(N)ncnn23)O[C@H](COP(=O)(OCCSC(=O)C(C)(C)C)OCCSC(=O)C(C)(C)C)[C@@H](O)[C@H]1O [Compound 9c]			less than 10 fold	
C#C[C@@]1(c2ccc3c(N)ncnn23)O[C@H](COP(=O)(OCCSC(=O)C(C)(C)C)OCCSC(=O)C(C)(C)C)[C@@H](O)[C@H]1O [Compound 9d]			less than 10 fold	
